IC50 data for nine compounds are collected here from patent US20060079453A1, “Hla binding peptides and their uses” (priority 2002, published 2006).

Where two headings read alike, the source gives them in different places. No end group written: not given here.

Among the targets are HLA-DR DRB1*0901 (DR9) (Homo sapiens, UniProt P01903+P01911, A100R/A103E/D57H/D86V/F55Y/F60I/F76Y/I96F/K127E/L162R/M171V/P40D/Q125H/Q99R/R33Q/R42F/S133A/S66N/T210M/V115G/W38K/Y107V/Y59G/Y89S); HLA-DR DRB1*0701 (DR7) (Homo sapiens, UniProt P01903+P01911, A100R/A102G/A103Q/D57E/D86V/E43K/F76Y/K127E/L162R/M171V/P40G/Q125H/Q99D/R33Q/R42Y/R54Q/S133A/S66F/T210M/V115G/Y107V/Y59L/Y89S); HLA-DR DRB1*0401 (DR4) (Homo sapiens, UniProt P01903+P01911, A100K/A169T/F76Y/I96L/K127E/L162R/M171V/N62H/P40V/Q125Y/R42H/S133A/S149N/S66Y/V115G/V209L/W38E); HLA-DR DRB1*0405 (DR4) (Homo sapiens, UniProt P01903+P01911, A100R/A169T/D86S/F76Y/I96L/K127E/L162R/M171V/N62H/P40V/Q125Y/R42H/S133A/S149N/S66Y/V115G/V209L/W38E); HLA-DR DRB1*0101 (DR1) (Homo sapiens, UniProt P01903+P01911, A100R/D57E/F55L/F60I/F76Y/I96L/L162R/M171V/P40L/Q125E/R42F/V115G/Y59C); HLA-DR DRB1*0301 (DR3) (Homo sapiens, UniProt P01903+P01911, A100K/A102G/A103R/A169T/F55Y/I96L/K41T/L162R/M171V/P40S/Q125H/Q178H/Q39Y/R42S/S66N/T106N/T262R/W38E/Y61H).

What all share (assay): biochemical
Assay type in all cases: binding

The next experiment deals with HLA-DR DRB5*0101 (DR51) (Homo sapiens, UniProt P01903+Q30154). Conditions: DRB5 *0101.
The target of another experiment is HLA-DR DRB4*0101 (DR53) (Homo sapiens, UniProt P01903+P13762, G164S). Conditions: DRB4 *0101.
A further experiment concerns the target HLA-DR DRB1*1501 (DR15) (Homo sapiens, UniProt P01903+P01911). The following applies: DRBI *1501.
The next experiment deals with HLA-DR DRB1*1302 (DR13) (Homo sapiens, UniProt P01903+P01911, A100E/A169T/K41T/L162R/M171V/P40S/Q125H/Q178H/Q39Y/Q99D/R42S/S66N/T262R/V115G/W38E/Y61H). Conditions: DRBI *1302.
Sequence of HLA-DR DRB1*1302 (DR13) (P01903 26-254 limits assumed, other chains not shown): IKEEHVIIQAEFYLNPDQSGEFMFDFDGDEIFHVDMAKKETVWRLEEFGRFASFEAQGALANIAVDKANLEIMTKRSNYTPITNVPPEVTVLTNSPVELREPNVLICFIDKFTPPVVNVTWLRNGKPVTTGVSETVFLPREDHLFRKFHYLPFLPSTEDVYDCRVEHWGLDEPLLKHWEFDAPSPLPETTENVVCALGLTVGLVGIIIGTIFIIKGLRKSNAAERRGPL
The target in the next experiment is HLA-DR DRB1*1101 (DR11) (Homo sapiens, UniProt P01903+P01911, A100R/A169T/A87E/I96F/K41T/L162R/M171V/P40S/Q125H/Q178H/Q39Y/Q99D/R42S/S66Y/T262R/V115G/W38E). Conditions: DRB1 *1101.
Sequence of HLA-DR DRB1*1101 (DR11) (P01903 26-254 limits assumed, other chains not shown): as above

Sequence of HLA-DR DRB1*0301 (DR3) (P01903 26-254 limits assumed, other chains not shown): as above

For the compound QDYVLDLQPEATDLH, the IC50 is above 22.9 µM against HLA-DR DRB5*0101 (DR51); above 39900 nM at HLA-DR DRB1*0901 (DR9) (DRB1 *0901); 1850 nM at HLA-DR DRB4*0101 (DR53); above 18600 nM against HLA-DR DRB1*0701 (DR7) (DRB1 *0701); 253 nM against HLA-DR DRB1*0401 (DR4) (DRB1 *0401); above 62.8 µM on HLA-DR DRB1*1501 (DR15). The IC50 on HLA-DR DRB1*1302 (DR13) was above 11.5 µM; on HLA-DR DRB1*0405 (DR4) (DRB1 *0405) it was 5590 nM; at HLA-DR DRB1*0101 (DR1) (DRB1 *0101) it was 13400 nM; at HLA-DR DRB1*1101 (DR11), above 11.9 µM.

For the compound DLRVVQQLLMGALTV, the IC50 stood at 1840 nM against HLA-DR DRB1*0901 (DR9) (DRB1 *0901); 9.5 nM on HLA-DR DRB4*0101 (DR53); 508 nM on HLA-DR DRB1*0701 (DR7) (DRB1 *0701); 0.057 µM against HLA-DR DRB1*1302 (DR13); 84 nM against HLA-DR DRB1*0405 (DR4) (DRB1 *0405); 8.4 nM at HLA-DR DRB1*0101 (DR1) (DRB1 *0101). For the same compound, on HLA-DR DRB1*0301 (DR3), the IC50 was found to be 26 µM.

Consider `CC[C@H](C)[C@H](N)C(=O)N[C@@H](CCCNC(=N)N)C(=O)N[C@H](C(=O)N[C@@H](CC(C)C)C(=O)N[C@@H](CCC(=O)O)C(=O)N[C@@H](CC(=O)O)C(=O)N[C@@H](CC(C)C)C(=O)N[C@@H](CC(C)C)C(=O)N[C@@H](CCSC)C(=O)NCC(=O)N[C@H](C(=O)N[C@@H](CC(C)C)C(=O)NCC(=O)N[C@H](C(=O)N[C@H](C(=O)O)C(C)C)[C@@H](C)CC)[C@@H](C)O)[C@@H](C)O`, for which the IC50 came out at 1720 nM at HLA-DR DRB1*0901 (DR9) (DRB1 *0901); 23 nM at HLA-DR DRB4*0101 (DR53); 895 nM against HLA-DR DRB1*0701 (DR7) (DRB1 *0701); 95 nM against HLA-DR DRB1*0401 (DR4) (DRB1 *0401); 0.789 µM on HLA-DR DRB1*1302 (DR13); 61 nM against HLA-DR DRB1*0405 (DR4) (DRB1 *0405). The values for the IC50 against HLA-DR DRB1*0101 (DR1) (DRB1 *0101) and at HLA-DR DRB1*0301 (DR3) were 16 nM and 5.21 µM, respectively.

Consider REVYKFLFTDLRIVY, for which the IC50 is 0.155 µM at HLA-DR DRB5*0101 (DR51); 204 nM at HLA-DR DRB1*0901 (DR9) (DRB1 *0901); 203 nM against HLA-DR DRB4*0101 (DR53); 54 nM against HLA-DR DRB1*0701 (DR7) (DRB1 *0701); 0.258 µM at HLA-DR DRB1*1501 (DR15); 0.08 µM against HLA-DR DRB1*1302 (DR13). For the same compound, the IC50 against HLA-DR DRB1*0405 (DR4) (DRB1 *0405) came out at 52 nM; against HLA-DR DRB1*0101 (DR1) (DRB1 *0101) it was 8.7 nM; against HLA-DR DRB1*1101 (DR11) it was 2.26 µM.

With KDYILDLQPETTDLH, the IC50 on HLA-DR DRB5*0101 (DR51) is above 55.1 µM; against HLA-DR DRB1*0901 (DR9) (DRB1 *0901), above 49900 nM; at HLA-DR DRB4*0101 (DR53), 490 nM; against HLA-DR DRB1*0701 (DR7) (DRB1 *0701), above 72300 nM; on HLA-DR DRB1*0401 (DR4) (DRB1 *0401), 1020 nM; against HLA-DR DRB1*1501 (DR15) it was above 37.4 µM. In addition, the IC50 on HLA-DR DRB1*1302 (DR13) was 23.7 µM; at HLA-DR DRB1*0405 (DR4) (DRB1 *0405) it was 2770 nM; against HLA-DR DRB1*1101 (DR11), above 17.4 µM.

As for DFAFADLTVVYREGN, the IC50 was 39.8 µM against HLA-DR DRB5*0101 (DR51); 322 nM at HLA-DR DRB1*0901 (DR9) (DRB1 *0901); 18000 nM against HLA-DR DRB4*0101 (DR53); 1730 nM at HLA-DR DRB1*0701 (DR7) (DRB1 *0701); 141 nM against HLA-DR DRB1*0401 (DR4) (DRB1 *0401); 4.92 µM against HLA-DR DRB1*1501 (DR15). Further, the IC50 against HLA-DR DRB1*1302 (DR13) is 9.63 µM; at HLA-DR DRB1*0405 (DR4) (DRB1 *0405), 60 nM; against HLA-DR DRB1*0101 (DR1) (DRB1 *0101) it was 3290 nM; on HLA-DR DRB1*1101 (DR11) it was above 18 µM.

Regarding LSFFLKEKGGLDGL, the IC50 on HLA-DR DRB1*0901 (DR9) (read-out: DRB1 *0901) is 3500 nM; at HLA-DR DRB1*0701 (DR7) (read-out: DRB1 *0701), 20000 nM; on HLA-DR DRB1*0405 (DR4) (read-out: DRB1 *0405) it was 983 nM; on HLA-DR DRB1*0301 (DR3) (read-out: DRB1 *0301), above 341 µM.

As for RLFDNAMLRAHRL, the IC50 was above 59500 nM at HLA-DR DRB1*0901 (DR9) (read-out: DRB1 *0901); 3300 nM on HLA-DR DRB1*0701 (DR7) (read-out: DRB1 *0701); 6290 nM at HLA-DR DRB1*0401 (DR4) (read-out: DRB1 *0401); 4250 nM at HLA-DR DRB1*0405 (DR4) (read-out: DRB1 *0405); 2.3 nM at HLA-DR DRB1*0101 (DR1) (read-out: DRB1 *0101); 0.027 µM at HLA-DR DRB1*0301 (DR3) (read-out: DRB1 *0301).

For DFAFTDLTIVYRDDT, the IC50 turned out to be 0.675 µM against HLA-DR DRB5*0101 (DR51); 1440 nM against HLA-DR DRB1*0901 (DR9) (DRB1 *0901); 21600 nM against HLA-DR DRB4*0101 (DR53); 80 nM at HLA-DR DRB1*0401 (DR4) (DRB1 *0401); 3.65 µM against HLA-DR DRB1*1501 (DR15); 5.01 µM on HLA-DR DRB1*1302 (DR13). Also, the IC50 is 40 nM on HLA-DR DRB1*0405 (DR4) (DRB1 *0405) and 0.023 µM against HLA-DR DRB1*0301 (DR3).
